From ChEMBL document CHEMBL5260858, “Targeting mycobacterial membranes and membrane proteins: Progress and limitations” (Bioorg Med Chem, 2023)
≈ marks a conversion by molar mass, not a printed value.

Legend:
[1] = test system: Mycobacterium tuberculosis variant bovis; test: Antitubercular activity against Mycobacterium bovis BCG assessed as bacterial growth inhibition incubated for 24 hrs by [14C]-acetate labelling based radiometric analysis; type: functional
[2] = test system: Mycobacterium tuberculosis variant bovis; test: Antitubercular activity against Mycobacterium bovis BCG infected in mouse J774.A1 cells assessed as reduction in intracellular bacterial load incubated for 6 days; type: functional; details: 144 h, time 6 day
[3] = test system: Mycobacterium tuberculosis variant bovis; test: Antitubercular activity against Mycobacterium tuberculosis variant bovis assessed as bacterial growth inhibition; type: functional
[4] = test system: Mycobacterium tuberculosis variant bovis; test: Inhibition of mycolic acid biosynthesis in Mycobacterium bovis BCG assessed as decrease in keto-mycolic acid in presence of 14C-labeled acetic acid incubated for 60 mins by photo-stimulated luminescence analysis; type: functional, organism-based; details: 1 h
[5] = test system: Mycobacterium tuberculosis variant bovis; test: Inhibition of mycolic acid biosynthesis in Mycobacterium bovis BCG assessed as decrease in methoxy-mycolic acid in presence of 14C-labeled acetic acid incubated for 60 mins by photo-stimulated luminescence analysis; type: functional, organism-based; details: 1 h
[6] = test system: Mycobacterium tuberculosis variant bovis; test: Antitubercular activity against Mycobacterium bovis assessed as bacterial growth inhibition; type: functional
[7] = test system: Mycobacterium tuberculosis variant bovis; test: Antitubercular activity against Mycobacterium bovis BCG assessed as bacterial growth inhibition; type: functional
[8] = test system: Mycobacterium tuberculosis variant bovis; test: Antitubercular activity against Mycobacterium bovis BCG assessed as minimum bactericidal concentration for 99.9% activity; type: functional; details: read-out: MBC99.9
[9] = test system: Mycobacterium tuberculosis variant bovis; test: Antitubercular activity against Mycobacterium bovis BCG assessed as bacterial growth inhibition incubated for 14 days by agar plate method; type: functional; details: 336 h, time 14 day

CCc1ccc([C@H]2C[C@@H](C(F)(F)F)n3ncc(C(=O)NCc4ccc5c(c4)OCO5)c3N2)cc1 was tested, and the MIC [1] was 0.8 µM (≈ 0.378 µg/mL).
With COC(=O)c1c(NC(=O)c2c(F)c(F)c(F)c(F)c2F)sc(C(N)=O)c1C the MIC [2] was 6.4 µM (≈ 2.61 µg/mL).
Work on CCc1nc2ccc(Cl)cn2c1C(=O)NCc1ccc(N2CCC(c3ccc(OC(F)(F)F)cc3)CC2)cc1 [TELACEBEC] yielded an MIC [3] of 0.0035 µM (≈ 0.00195 µg/mL).
For C[C@@]1(COc2ccc(N3CCC(Oc4ccc(OC(F)(F)F)cc4)CC3)cc2)Cn2cc([N+](=O)[O-])nc2O1, the IC50 [4] was 0.69 µg/mL and the IC50 [5] was 0.63 µg/mL.
Compound COc1cccc2ccn(CCCCC[P+](c3ccccc3)(c3ccccc3)c3ccccc3)c12 has an MIC50 [6] of 2 µM.
Compound COc1nc2ccc(Br)cc2cc1[C@@H](c1ccccc1)[C@@](O)(CCN(C)C)c1cccc2ccccc12 [BEDAQUILINE] has an MIC [6] of 0.003 µg/mL (≈ 5.4 nM).
O=[N+]([O-])c1cccc2c1ccn2CCCCC[P+](c1ccccc1)(c1ccccc1)c1ccccc1 was tested, and the MIC50 [6] was 3 µM.
CCCCCCCCn1cc(CN2CCCCCC2)c2c(F)cccc21 gave an MIC50 [7] of 0.3 µM (≈ 0.108 µg/mL) and an MBC [8] of 12 µM (≈ 4.3 µg/mL).
For Cc1cc2oc(=O)cc(-c3cccc(N)c3)c2c(C)c1-c1ccc(CN2CCOCC2)cc1, the MIC [9] was 0.71 µM (≈ 0.313 µg/mL).
COC(=O)c1c(NC(=O)c2c(F)c(F)c(F)c(F)c2F)sc2c1CCCCC2 showed an MIC [2] of 12.8 µM (≈ 5.37 µg/mL).
Compound CCc1ccc([C@H]2C[C@@H](C(F)(F)F)n3ncc(C(=O)NCc4ccc(OC)cc4)c3N2)cc1 has an MIC [1] of 0.3 µM (≈ 0.138 µg/mL).
NNC(=O)c1ccncc1 [ISONIAZID] gave an IC50 [4] of 0.021 µg/mL and an IC50 [5] of 0.036 µg/mL.
CCCCCCCCn1cc(CN2CCC3(CC2)OCCCO3)c2ccc(OC)cc21 was tested, and the MIC50 [7] was 0.3 µM (≈ 0.129 µg/mL) and the MBC [8] was 1.2 µM (≈ 0.514 µg/mL).
